These are literature values, as cited in patent publication US9428458B2, “Substituted pyridoxine-lactam carboxylate-salts” (ALCOBRA LTD., priority 2008, dated 2016).

The conditions of the data set: ca. 900 mg daily dose administered intravenously.

On to “pyridoxine L-2-pyrrolidone-5-carboxylate [metadoxine]”, for which the “side effects associated with the use of metadoxine” value is “nausea and vomiting”.
